Values of other authors as cited in article PMC11768433 (Viruses, 2024).
Like-named read-outs stand apart in the source and are kept apart here.

Key:
[1] = tested on: Vero E6 cells; set-up: method as in Ref.35663971; settings: ref Ref.35663971
[2] = tested on: SARS-CoV-2; set-up: method as in Ref.35663971; settings: SARS-CoV-2, Huh7 cells, at 10 μM; ref Ref.35663971
[3] = tested on: HSV; set-up: method as in Ref.35663971; settings: Huh7 cells, at 10 μM, ref Ref.35663971
[4] = tested on: Dengue virus 2(DENV2); set-up: method as in Ref.35663971; settings: DENV2, Huh7 cells, at 10 μM; ref Ref.35663971
[5] = tested on: HCoV-OC43; set-up: method as in Ref.35216177; settings: HCoV-OC43 replication, Vero cells; ref Ref.35216177
[6] = tested on: Vero cells; set-up: method as in Ref.35216177; settings: ref Ref.35216177
[7] = tested on: HCoV-229E; set-up: method as in Ref.35216177; settings: HCoV-229E replication, Vero cells; ref Ref.35216177
[8] = tested on: HSV-2; set-up: method as in Ref.35216177; settings: HSV-2 replication, Vero cells; ref Ref.35216177
[9] = tested on: SARS-CoV-2; set-up: method as in Ref.35216177; settings: SARS-CoV-2 replication, Vero cells; ref Ref.35216177
[10] = tested on: HPIV-3; set-up: method as in Ref.35216177; settings: HPIV-3 replication, Vero cells; ref Ref.35216177
[11] = tested on: HSV-1; set-up: method as in Ref.35216177; settings: HSV-1 replication, Vero cells; ref Ref.35216177
[12] = tested on: P4 cells; set-up: method as in Ref.12054767; settings: MTT assay, peptide concentrations higher than 100 μM, ref Ref.12054767
[13] = tested on: HIV-1; set-up: method as in Ref.12054767; settings: up to 100 μM; ref Ref.12054767
[14] = tested on: Vero cells; set-up: method as in Ref.35055066; settings: ref Ref.35055066
[15] = tested on: MDCK cells; set-up: method as in Ref.17005658; settings: up to 50μM, ref Ref.17005658
[16] = tested on: Huh-7 cells; set-up: method as in Ref.20156485; settings: ref Ref.20156485
[17] = tested on: hepatitis C virus(HCVpp); set-up: method as in Ref.20156485; settings: Huh-7 human hepatoma cells, ref Ref.20156485
[18] = tested on: Human PBMC; set-up: method as in Ref.30867304; settings: ref Ref.30867304
[19] = tested on: MT-4 cells; set-up: method as in Ref.30867304; settings: ref Ref.30867304
[20] = tested on: C8166 cells; set-up: method as in Ref.30867304; settings: ref Ref.30867304
[21] = tested on: TZM-bl cells; set-up: method as in Ref.30867304; settings: ref Ref.30867304
[22] = tested on: U937 cells; set-up: method as in Ref.30867304; settings: U937 cells (cell text ends after μ); ref Ref.30867304
[23] = tested on: P4-CCR5 cells; set-up: method as in Ref.15780876; settings: ref Ref.15780876
[24] = tested on: Vero cells; set-up: method as in Ref.18572274; settings: up to 500 μM, ref Ref.18572274
[25] = tested on: Herpes simplex virus type 1(HSV-1); set-up: method as in Ref.18572274; settings: HSV-1 entry, Vero cells, at 250μM; ref Ref.18572274
[26] = tested on: Huh7.5.1 cells; set-up: method as in Ref.22378192; settings: ref Ref.22378192

Substance: MGRFKRFRKKFKKLFKKLS [DRAVPe01948, DRAVP database peptide bomidin]
- CC50 [1]: 169.6 µM
- inhibition [2]: 80%
- inhibition [3]: 50%
- inhibition [4]: 50%

Substance: FVPWFSKFlKRIL [DRAVPe00383, DRAVP database entry, TL peptide]
- IC90 [5]: 16.3 µM
- CC50 [6]: 22.32 µM
- IC90 [7]: 50 µM
- IC90 [8]: 7.99 µM
- IC90 [9]: 12.9 µM
- IC90 [10]: > 50 µM
- IC90 [11]: 10.5 µM

Substance: QLLIRMI [DRAVPe00092, DRAVP database peptide, target HIV-1 integrase]
- decrease of cell viability [12]: ~5%
- inhibition of HIV-1 infection [13]: no inhibition

Substance: FVPWFSKFlkRIL [DRAVPe00384, DRAVP database entry, TL peptide]
- IC90 [5]: 29.2 µM
- CC50 [6]: 45.92 µM
- IC90 [7]: 50 µM
- IC90 [8]: 12.5 µM
- IC90 [9]: 25.3 µM
- IC90 [10]: > 50 µM
- IC90 [11]: 12.7 µM

Substance: AIGSILGALAKGLPTLISWIKNR [DRAVPe00469, DRAVP database peptide AR-23]
- CC50 [14]: 25 µM

Substance: RRKKAAVALLPAVLLALLAP [DRAVPe01891]
- cytotoxicity [15]: [Ref.17005658]No cytotoxicity against MDCK cells up to 50μM

Substance: VSFAIKWEYVLLLFLL [DRAVPe01483]
- cytotoxicity [16]: [Ref.20156485]No cytotoxicity against Huh-7 cells.
- EC90 [17]: 14 ± 12 µM

Substance: WEQKIEELLKKAEEQQKKNEEELKKLEKX [DRAVPe00787]
- CC50 [18]: 40.27 µM
- CC50 [19]: 19.65 µM
- CC50 [20]: 19.19 µM
- CC50 [21]: 12.34 µM
- CC50 [22]: 9.97 μ

Substance: ALWKTLLKKVLKAAAK [DRAVPe01957, DRAVP database peptide, target HIV]
- CC50 [23]: [Ref.15780876]P4-CCR5 cells:CC50>100 μM.

Substance: AAHLIDALYAEFLGGRVLTTPVVHRALFYASAVLRQPFLAGVPSA [DRAVPe01422]
- cytotoxicity [24]: [Ref.18572274]No cytotoxicity against Vero cells up to 500 μM.

Substance: AAHLIDALYAEFLGGRVLTT [DRAVPe01423]
- cytotoxicity [24]: [Ref.18572274]No cytotoxicity against Vero cells up to 500 μM.
- inhibition [25]: 60%

Substance: ALWMTLLKKVLKAAAKAALNAVLVGANA [DRAVPe01956, DRAVP database peptide, target HIV]
- CC50 [23]: 5.6 µM

Substance: MANAGLQLLGFILAFLGW [DRAVPe01317, DRAVP database peptide, target HCV]
- CC50 [26]: ~200 Μm
